Reference: BindingDB's records for doi:10.1021/acs.biochem.5b00536 (University of Pennsylvania, 2015)

Columns and labels:
[1] = target: T1, Histone deacetylase 8 (Homo sapiens, UniProt Q9BY41); assay: HDAC8 Fluorimetric Assay; settings: pH 8.2
T1 sequence (Q9BY41 whole entry): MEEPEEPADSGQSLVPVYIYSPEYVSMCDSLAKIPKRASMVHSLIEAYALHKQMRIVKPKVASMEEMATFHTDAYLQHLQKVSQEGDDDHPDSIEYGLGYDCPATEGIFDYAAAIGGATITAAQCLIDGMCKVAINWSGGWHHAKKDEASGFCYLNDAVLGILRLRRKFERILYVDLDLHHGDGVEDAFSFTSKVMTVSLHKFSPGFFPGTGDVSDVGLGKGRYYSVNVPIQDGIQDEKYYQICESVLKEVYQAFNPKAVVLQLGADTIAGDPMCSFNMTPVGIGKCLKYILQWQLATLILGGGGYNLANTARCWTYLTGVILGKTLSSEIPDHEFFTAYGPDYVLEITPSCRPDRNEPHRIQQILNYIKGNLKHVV
Description: Activity assays were conducted at 25 °C and contained 500 nM HDAC8 enzyme, 150 μM Ac-Arg-His-Lys(Ac)-Lys(Ac)-aminomethylcoumarin substrate (BML-KI178, Enzo Life Sciences), and 0−10 mM inhibitor in assay buffer [25 mM Tris (pH 8.2), 137 mM NaCl, 2.7 mM KCl, and 1 mM MgCl2; 250 μM tris(2-carboxyethyl)phosphine was added for the assay of thiol compound 2] in a final volume of 50 μL. […] After 30 min, reactions were quenched by adding 100 μM M344 (Sigma-Aldrich) and the appropriate Fluor-de-Lys developer (BMLKI176, Enzo Life Sciences, 50 μL). Fluorescence was measured after 45 min using a Fluoroskan II plate reader (excitation at 355 nm, emission at 460 nm).

[2] = target: T2, Acetylpolyamine amidohydrolase (Mycoplana ramosa, UniProt Q48935); assay: APAH Fluorimetric Assay; settings: pH 8.2
T2 sequence (Q48935 whole entry): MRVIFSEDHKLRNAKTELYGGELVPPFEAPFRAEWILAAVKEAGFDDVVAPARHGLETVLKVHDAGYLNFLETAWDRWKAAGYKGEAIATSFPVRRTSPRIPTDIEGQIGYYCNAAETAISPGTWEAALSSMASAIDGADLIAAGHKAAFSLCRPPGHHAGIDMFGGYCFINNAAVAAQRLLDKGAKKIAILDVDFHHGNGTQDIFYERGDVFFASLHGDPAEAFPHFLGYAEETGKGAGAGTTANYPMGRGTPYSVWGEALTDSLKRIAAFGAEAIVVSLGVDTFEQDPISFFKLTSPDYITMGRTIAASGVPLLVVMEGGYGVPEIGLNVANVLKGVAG
Description: Activity assays were conducted at 25 °C and contained 250 nM APAH (∼50% Zn2+ occupancy), 150 μM substrate, and 0−250 μM inhibitor in assay buffer [25 mM Tris (pH 8.2), 137 mM NaCl, 2.7 mM KCl, and 1 mM MgCl2] in a final volume of 50 μL. […] After 30 min, reactions were quenched by adding 100 μM M344 (Sigma-Aldrich) and the appropriate Fluor-de-Lys developer (BML-KI105, Enzo Life Sciences, 50 μL). Fluorescence was measured after 45 min using a Fluoroskan II plate reader (excitation at 355 nm, emission at 460 nm).

Row | Compound | IC50 [1] [nM] | IC50 [2] [nM]
1 | NCCCCCC(=O)NO | 19000 | 130
2 | NCCCCCCC(=O)NO | 5300 | 68
3 | NCCCCCCCC(=O)NO | 2200 | 150
4 | NCCCCC(=O)NO [5-Amino-N-hydroxypentanamide (4)] | 120000 | 170
5 | NCCCNCCCCCS [(3-azaniumylpropyl)(5-sulfanylpentyl)azanium (2)] | 12000 | –
6 | NCCCNCCCCCC(=O)C(F)(F)F [(3-azaniumylpropyl)(7,7,7-trifluoro-6-oxoheptyl)azanium (1)] | 260 | –
7 | NCCCNCCCCCC(=O)NO [(3-azaniumylpropyl)[5-(hydroxycarbamoyl)pentyl]azanium (3)] | 14000 | –
